Earlier results as cited in article PMC6044787 (ACS Omega, 2017).

Test system: AChE

C[n+]1ccc2c(c1)[nH]c1ccc(Cl)cc12 [Compound 8, nostocarboline]
IC50: 5.3 µM
